Laboratory results reported in ChEMBL document CHEMBL4330071 (Eur J Med Chem, 2019).

Experiments:
[1] = tested on: MV4-11; test: Induction of apoptosis in human MV4-11 cells assessed as viable cells at 0.05 uM after 24 hrs by Annexin V-FITC/propidium iodide staining based flow cytometric analysis (reference value: 95.19%); assay type: functional; conditions: MV4-11, 24 h, read-out: Activity
[2] = target: Serine/threonine-protein kinase Chk1 (Homo sapiens, UniProt O14757); test: Inhibition of human CHK1 using KKKVSRSGLYRSPSMPENLNRPR as substrate preincubated for 20 mins followed by [gamma-33P]-ATP addition and measured after 120 mins by Hotspot assay
[3] = target: T1, Tyrosine-protein kinase ABL1 (Homo sapiens, UniProt P00519); test: Binding affinity to wild-type human non-phosphorylated ABL1 (S229 to K512 residues) expressed in mammalian expression system after 60 mins by Kinomescan method
[4] = target: Calcium/calmodulin-dependent protein kinase type 1 (Homo sapiens) (UniProt Q14012); test: Inhibition of human CAMK1A assessed as residual activity at 10 uM using KKALRRQETVDAL as substrate preincubated for 20 mins followed by [gamma-33P]-ATP addition and measured after 120 mins by Hotspot assay relative to control
[5] = tested on: MV4-11; test: Induction of apoptosis in human MV4-11 cells assessed as necrotic cells at 0.02 uM after 24 hrs by Annexin V-FITC/propidium iodide staining based flow cytometric analysis (reference value: 0%); assay type: functional
[6] = tested on: SMMC-7721; test: Growth inhibition of human SMMC7721 cells at 10 uM after 72 hrs by CellTiter-Glo assay relative to control; assay type: functional; conditions: SMMC-7721, 72 h, read-out: GI
[7] = target: Aurora kinase A (Homo sapiens) (UniProt O14965); test: Inhibition of human Aurora A assessed as residual activity at 10 uM using [H-LRRASLG] as substrate preincubated for 20 mins followed by [gamma-33P]-ATP addition and measured after 120 mins by Hotspot assay relative to control
[8] = target: Tyrosine-protein kinase Lck (Homo sapiens, UniProt P06239); test: Inhibition of human LCK assessed as residual activity at 10 uM using poly[Glu:Tyr] (4:1) as substrate preincubated for 20 mins followed by [gamma-33P]-ATP addition and measured after 120 mins by Hotspot assay relative to control
[9] = target: CDK2/Cyclin A2 (Homo sapiens) (UniProt P24941+P20248); test: Inhibition of human CDK2/cyclin-A assessed as residual activity at 10 uM using histone H1 as substrate preincubated for 20 mins followed by [gamma-33P]-ATP addition and measured after 120 mins by Hotspot assay relative to control; assay type: protein-complex assay
[10] = target: Vascular endothelial growth factor receptor 2 (Homo sapiens, UniProt P35968); test: Inhibition of human KDR using poly[Glu:Tyr] (4:1) as substrate preincubated for 20 mins followed by [gamma-33P]-ATP addition and measured after 120 mins by Hotspot assay
[11] = target: Serine/threonine-protein kinase Nek2 (Homo sapiens, UniProt P51955); test: Inhibition of human NEK2 using MBP as substrate preincubated for 20 mins followed by [gamma-33P]-ATP addition and measured after 120 mins by Hotspot assay
[12] = Half life in human liver microsomes at 1 uM after 5 to 60 mins in presence of NADPH by LC-MS/MS analysis; assay type: ADME, Microsome
[13] = target: Inhibitor of nuclear factor kappa-B kinase subunit alpha (Homo sapiens) (UniProt O15111); test: Inhibition of human IKKalpha assessed as residual activity at 10 uM using KKKKERLLDDRHDSGLDSMKDEE as substrate preincubated for 20 mins followed by [gamma-33P]-ATP addition and measured after 120 mins by Hotspot assay relative to control
[14] = target: Mast/stem cell growth factor receptor Kit (Homo sapiens, UniProt P10721); test: Inhibition of human c-KIT assessed as residual activity at 10 uM using poly[Glu:Tyr] (4:1) as substrate preincubated for 20 mins followed by [gamma-33P]-ATP addition and measured after 120 mins by Hotspot assay relative to control
[15] = target: Cyclin-dependent kinase 4/cyclin D1 (Homo sapiens, UniProt P11802); test: Inhibition of human CDK4/cyclin-D1 using RB protein as substrate preincubated for 20 mins followed by [gamma-33P]-ATP addition and measured after 120 mins by Hotspot assay; assay type: protein-complex assay
[16] = target: CDK1/Cyclin A (Homo sapiens) (UniProt P06493+P20248); test: Inhibition of human CDK1/Cyclin-A assessed as residual activity at 10 uM using Histone H1 as substrate preincubated for 20 mins followed by [gamma-33P]-ATP addition and measured after 120 mins by Hotspot assay relative to control; assay type: protein-complex assay
[17] = target: Platelet-derived growth factor receptor alpha (Homo sapiens, UniProt P16234); test: Inhibition of human PDGFRalpha assessed as residual activity at 10 uM using poly[Glu:Tyr] (4:1) as substrate preincubated for 20 mins followed by [gamma-33P]-ATP addition and measured after 120 mins by Hotspot assay relative to control
[18] = target: ALK tyrosine kinase receptor (Homo sapiens, UniProt Q9UM73); test: Inhibition of human ALK using poly[Glu:Tyr] (4:1) as substrate preincubated for 20 mins followed by [gamma-33P]-ATP addition and measured after 120 mins by Hotspot assay
[19] = target: Insulin-like growth factor 1 receptor (Homo sapiens) (UniProt P08069); test: Inhibition of human IGF1R assessed as residual activity at 10 uM using KKKSPGEYVNIEFG as substrate preincubated for 20 mins followed by [gamma-33P]-ATP addition and measured after 120 mins by Hotspot assay relative to control
[20] = target: RAC-alpha serine/threonine-protein kinase (Homo sapiens) (UniProt P31749); test: Inhibition of human AKT1 assessed as residual activity at 10 uM using KGSGSGRPRTSSFAEG as substrate preincubated for 20 mins followed by [gamma-33P]-ATP addition and measured after 120 mins by Hotspot assay relative to control
[21] = tested on: MV4-11; test: Growth inhibition of human MV4-11 cells harboring FLT3 ITD mutant at 10 uM after 72 hrs by CellTiter-Glo assay relative to control; assay type: functional; conditions: MV4-11, 72 h, read-out: GI
[22] = target: Cyclin-dependent kinase 7/ cyclin H (Homo sapiens, UniProt P50613); test: Inhibition of human CDK7/cyclin-H using MBP as substrate preincubated for 20 mins followed by [gamma-33P]-ATP addition and measured after 120 mins by Hotspot assay; assay type: protein-complex assay
[23] = target: T1, Tyrosine-protein kinase ABL1; test: Inhibition of human ABL1 assessed as residual activity at 10 uM using EAIYAAPFAKKK as substrate preincubated for 20 mins followed by [gamma-33P]-ATP addition and measured after 120 mins by Hotspot assay relative to control
[24] = target: Mitogen-activated protein kinase 3 (Homo sapiens) (UniProt P27361); test: Inhibition of human ERK1 assessed as residual activity at 10 uM using MBP as substrate preincubated for 20 mins followed by [gamma-33P]-ATP addition and measured after 120 mins by Hotspot assay relative to control
[25] = target: Tyrosine-protein kinase ABL1 (Homo sapiens, UniProt P00519, F317L); test: Binding affinity to human phosphorylated ABL1 F317L mutant (S229 to K512 residues) expressed in mammalian expression system after 60 mins by Kinomescan method
Sequence of Tyrosine-protein kinase ABL1 (Homo sapiens, UniProt P00519, F317L) (P00519 whole entry F317L, the tested form may be a part): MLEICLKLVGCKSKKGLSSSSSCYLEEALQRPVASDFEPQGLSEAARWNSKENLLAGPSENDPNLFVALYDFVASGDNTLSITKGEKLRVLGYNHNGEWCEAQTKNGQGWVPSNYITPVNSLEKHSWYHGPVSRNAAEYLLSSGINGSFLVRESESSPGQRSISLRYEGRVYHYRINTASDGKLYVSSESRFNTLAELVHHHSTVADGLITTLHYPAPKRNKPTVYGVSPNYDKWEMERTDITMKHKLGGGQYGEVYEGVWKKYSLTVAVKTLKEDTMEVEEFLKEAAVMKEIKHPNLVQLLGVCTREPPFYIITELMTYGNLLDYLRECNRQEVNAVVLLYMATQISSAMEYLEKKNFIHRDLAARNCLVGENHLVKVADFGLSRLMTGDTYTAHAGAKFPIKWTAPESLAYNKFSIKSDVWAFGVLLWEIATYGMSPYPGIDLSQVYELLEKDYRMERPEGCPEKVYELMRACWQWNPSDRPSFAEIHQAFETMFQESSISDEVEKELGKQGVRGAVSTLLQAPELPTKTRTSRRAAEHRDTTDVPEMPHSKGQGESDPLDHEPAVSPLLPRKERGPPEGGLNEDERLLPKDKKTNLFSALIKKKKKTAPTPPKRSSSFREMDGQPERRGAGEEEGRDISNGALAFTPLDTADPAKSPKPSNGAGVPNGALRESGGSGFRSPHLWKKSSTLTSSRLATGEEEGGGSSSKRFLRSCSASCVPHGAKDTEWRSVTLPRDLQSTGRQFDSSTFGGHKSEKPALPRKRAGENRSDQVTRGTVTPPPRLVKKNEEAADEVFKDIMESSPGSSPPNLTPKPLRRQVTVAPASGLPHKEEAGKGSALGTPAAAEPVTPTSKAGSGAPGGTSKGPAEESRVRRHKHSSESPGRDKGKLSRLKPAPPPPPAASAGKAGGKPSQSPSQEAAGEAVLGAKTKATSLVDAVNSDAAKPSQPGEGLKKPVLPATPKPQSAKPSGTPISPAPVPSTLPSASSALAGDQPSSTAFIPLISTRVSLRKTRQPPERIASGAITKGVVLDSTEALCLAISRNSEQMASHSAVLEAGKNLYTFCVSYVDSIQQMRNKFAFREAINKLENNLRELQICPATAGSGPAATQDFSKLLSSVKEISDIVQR

T1 sequence (P00519 whole entry, the tested form may be a part): as the sequence (P00519 whole entry F317L, the tested form may be a part) above, with L317F counted along it
Sequence of Serine/threonine-protein kinase Chk1 (O14757 whole entry, the tested form may be a part): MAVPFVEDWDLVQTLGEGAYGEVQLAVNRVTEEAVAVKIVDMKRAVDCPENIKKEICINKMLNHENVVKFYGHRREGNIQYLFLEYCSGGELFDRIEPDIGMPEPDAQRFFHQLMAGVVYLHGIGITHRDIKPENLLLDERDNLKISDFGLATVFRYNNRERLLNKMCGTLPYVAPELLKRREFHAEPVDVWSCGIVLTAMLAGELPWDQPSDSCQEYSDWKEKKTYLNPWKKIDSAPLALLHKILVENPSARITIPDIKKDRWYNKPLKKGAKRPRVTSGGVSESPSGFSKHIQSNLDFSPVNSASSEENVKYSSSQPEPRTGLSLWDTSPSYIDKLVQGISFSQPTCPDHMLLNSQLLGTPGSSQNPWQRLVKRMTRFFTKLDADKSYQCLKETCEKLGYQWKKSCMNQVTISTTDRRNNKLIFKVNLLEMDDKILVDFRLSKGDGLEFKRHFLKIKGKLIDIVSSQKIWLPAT
Sequence of Cyclin-dependent kinase 4/cyclin D1 (P11802 whole entry): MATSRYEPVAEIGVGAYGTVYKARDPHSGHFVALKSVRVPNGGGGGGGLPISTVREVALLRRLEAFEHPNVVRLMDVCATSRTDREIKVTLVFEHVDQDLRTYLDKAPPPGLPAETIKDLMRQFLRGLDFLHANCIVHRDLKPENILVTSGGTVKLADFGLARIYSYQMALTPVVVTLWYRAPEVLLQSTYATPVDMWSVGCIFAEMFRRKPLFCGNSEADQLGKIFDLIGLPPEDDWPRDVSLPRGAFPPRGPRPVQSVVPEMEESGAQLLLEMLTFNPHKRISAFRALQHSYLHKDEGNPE
Sequence of Cyclin-dependent kinase 4/cyclin D1 (P24385 whole entry, further chain): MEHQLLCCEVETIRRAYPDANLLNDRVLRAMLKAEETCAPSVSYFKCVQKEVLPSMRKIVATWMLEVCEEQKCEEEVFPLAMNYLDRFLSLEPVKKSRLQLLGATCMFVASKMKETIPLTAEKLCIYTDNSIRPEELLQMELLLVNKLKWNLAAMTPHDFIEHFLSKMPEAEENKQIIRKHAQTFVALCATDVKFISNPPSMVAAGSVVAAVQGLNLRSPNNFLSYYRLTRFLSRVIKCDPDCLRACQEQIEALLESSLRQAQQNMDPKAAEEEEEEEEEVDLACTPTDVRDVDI
Sequence of Mast/stem cell growth factor receptor Kit (P10721 whole entry): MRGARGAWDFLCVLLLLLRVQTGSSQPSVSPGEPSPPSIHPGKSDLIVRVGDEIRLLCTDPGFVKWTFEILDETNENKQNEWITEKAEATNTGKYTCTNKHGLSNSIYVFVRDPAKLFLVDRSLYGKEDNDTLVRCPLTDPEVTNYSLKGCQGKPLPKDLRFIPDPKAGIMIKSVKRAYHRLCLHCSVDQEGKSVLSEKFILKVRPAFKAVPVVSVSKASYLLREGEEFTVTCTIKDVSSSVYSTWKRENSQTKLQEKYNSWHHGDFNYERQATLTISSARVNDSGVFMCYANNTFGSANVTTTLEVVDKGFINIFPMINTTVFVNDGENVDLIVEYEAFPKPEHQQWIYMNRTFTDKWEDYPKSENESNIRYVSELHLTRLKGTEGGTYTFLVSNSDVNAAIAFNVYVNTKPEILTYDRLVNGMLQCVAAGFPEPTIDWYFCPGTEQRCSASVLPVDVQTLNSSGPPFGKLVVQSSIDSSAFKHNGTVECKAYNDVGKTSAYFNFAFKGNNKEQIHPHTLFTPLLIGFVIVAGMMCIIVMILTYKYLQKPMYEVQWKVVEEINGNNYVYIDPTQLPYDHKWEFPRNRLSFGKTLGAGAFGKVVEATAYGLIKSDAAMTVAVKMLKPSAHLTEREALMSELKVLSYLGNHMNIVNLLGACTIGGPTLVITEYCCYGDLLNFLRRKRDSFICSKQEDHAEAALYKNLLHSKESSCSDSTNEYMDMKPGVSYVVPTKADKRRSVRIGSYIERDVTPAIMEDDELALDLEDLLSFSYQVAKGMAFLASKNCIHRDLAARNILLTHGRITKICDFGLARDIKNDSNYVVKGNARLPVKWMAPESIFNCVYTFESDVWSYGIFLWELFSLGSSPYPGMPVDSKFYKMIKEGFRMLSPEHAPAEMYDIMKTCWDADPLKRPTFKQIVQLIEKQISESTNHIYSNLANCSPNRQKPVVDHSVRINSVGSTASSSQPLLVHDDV
Sequence of RAC-alpha serine/threonine-protein kinase (Homo sapiens) (P31749 whole entry): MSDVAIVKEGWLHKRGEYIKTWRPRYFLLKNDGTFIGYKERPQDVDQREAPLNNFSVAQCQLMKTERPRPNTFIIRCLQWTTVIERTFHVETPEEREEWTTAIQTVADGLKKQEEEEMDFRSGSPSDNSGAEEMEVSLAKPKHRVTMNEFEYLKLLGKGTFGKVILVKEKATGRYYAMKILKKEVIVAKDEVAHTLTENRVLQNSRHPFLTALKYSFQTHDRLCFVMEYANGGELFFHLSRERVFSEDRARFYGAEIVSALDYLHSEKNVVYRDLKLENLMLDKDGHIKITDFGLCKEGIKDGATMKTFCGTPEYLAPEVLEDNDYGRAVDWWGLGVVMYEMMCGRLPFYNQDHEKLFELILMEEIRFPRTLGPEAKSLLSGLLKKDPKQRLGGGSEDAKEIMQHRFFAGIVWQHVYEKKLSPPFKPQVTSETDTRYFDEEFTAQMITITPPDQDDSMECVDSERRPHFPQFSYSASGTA
Sequence of Aurora kinase A (Homo sapiens) (O14965 whole entry): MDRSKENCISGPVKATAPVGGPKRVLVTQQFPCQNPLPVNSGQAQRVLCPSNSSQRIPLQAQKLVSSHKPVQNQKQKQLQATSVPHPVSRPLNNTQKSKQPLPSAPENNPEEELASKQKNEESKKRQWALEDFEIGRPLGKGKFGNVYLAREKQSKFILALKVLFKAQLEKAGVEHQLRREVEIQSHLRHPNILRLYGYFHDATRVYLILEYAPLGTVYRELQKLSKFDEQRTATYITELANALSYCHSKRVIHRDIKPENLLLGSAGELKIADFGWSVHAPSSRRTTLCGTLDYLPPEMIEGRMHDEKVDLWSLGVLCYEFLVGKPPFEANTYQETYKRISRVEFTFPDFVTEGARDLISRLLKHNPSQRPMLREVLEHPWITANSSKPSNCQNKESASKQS
Sequence of CDK1/Cyclin A (Homo sapiens) (P06493 whole entry, looked up): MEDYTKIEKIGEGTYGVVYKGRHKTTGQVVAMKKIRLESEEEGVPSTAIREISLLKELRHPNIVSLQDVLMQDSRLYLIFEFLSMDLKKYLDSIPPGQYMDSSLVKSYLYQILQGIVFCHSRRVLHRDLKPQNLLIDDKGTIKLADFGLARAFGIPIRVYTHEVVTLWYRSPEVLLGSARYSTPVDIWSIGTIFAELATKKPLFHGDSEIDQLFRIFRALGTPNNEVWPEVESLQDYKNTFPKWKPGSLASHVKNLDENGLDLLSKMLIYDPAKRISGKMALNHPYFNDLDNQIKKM
Sequence of CDK1/Cyclin A (Homo sapiens) (P20248 whole entry, looked up): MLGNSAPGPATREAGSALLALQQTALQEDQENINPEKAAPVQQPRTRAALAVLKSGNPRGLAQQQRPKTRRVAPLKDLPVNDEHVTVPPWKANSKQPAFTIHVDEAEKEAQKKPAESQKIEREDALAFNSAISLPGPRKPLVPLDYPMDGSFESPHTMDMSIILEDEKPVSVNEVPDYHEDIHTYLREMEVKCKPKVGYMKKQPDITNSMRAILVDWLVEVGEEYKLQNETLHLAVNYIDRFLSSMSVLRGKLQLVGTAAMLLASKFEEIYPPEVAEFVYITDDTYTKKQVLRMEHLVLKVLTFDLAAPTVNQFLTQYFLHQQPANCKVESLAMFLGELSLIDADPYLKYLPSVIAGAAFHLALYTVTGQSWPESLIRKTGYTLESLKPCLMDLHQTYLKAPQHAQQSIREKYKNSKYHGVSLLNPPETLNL

Q: What does the source list for `CN1CCC(Nc2ccc(C(=O)Nc3cc(-c4cc(C#N)cs4)n[nH]3)cc2)CC1`?
A: viability at 0.05 µM [1]: 59.6%; IC50 ([2]; read-out: IC50): 1.53 µM; IC50 ([2]; read-out: pIC50 (converted)): 1.58 µM; Kd [3]: 0.37 µM; Activity [4]: 48.5%; Activity [5]: 3.01%; inhibition of growth at 10 µM [6]: 1.47%; Activity [7]: 58.4%; Activity [8]: 8.39%; Activity [9]: 66.8%; IC50 [10]: 6.26 µM; IC50 [11]: 2.09 µM; half-life at 1 µM [12]: 1.03 h; Activity [13]: 86.5%; Activity [14]: 14.4%; IC50 ([15]; read-out: IC50): > 10 µM; IC50 ([15]; read-out: pIC50 (converted)): 10 µM; Activity [16]: 74.5%; Activity [17]: 30.2%; IC50 [18]: 5.14 µM; Activity [19]: 94.8%; Activity [20]: 90.7%; inhibition of growth at 10 µM [21]: 89.9%; IC50 [22]: 7.91 µM; Activity [23]: 8.32%; Activity [24]: 87.6%; Kd [25]: 0.46 µM
